From US20240058344A1, “METHODS OF TREATING NEURODEGENERATIVE DISORDERS AND STAT3-LINKED CANCERS USING SUPPRESSORS OF ELECTRON LEAK” (Cornell University, priority 2020, published 2024)

Columns and labels:
primary astrocytes = test: Intracellular ATP levels in primary astrocytes; type: cell-based
Description: Antimycin A and myxothiazol were used as positive controls to inhibit mitochondrial respiration and ATP production. n=3 wells per condition. ***p<0.001 vs. vehicle, mixed-effects model with Dunnett's multiple comparisons test.

ASC/Pycard; CD11b = test: Immunolabeling of ASC/Pycard and CD11b in hippocampal tissue of hTauP301S mice; type: in vivo; conditions: 6 weeks oral dosing
Description: Levels of immunolabeling for the inflammasome protein ASC/Pycard (FIG. 6A) and the microglial marker CD11b (FIG. 6B) in hippocampal tissue from nontransgenic (NTG) and hTauP301S mice after 6 weeks of oral dosing with S3QEL2 or vehicle. n=3-6 mice per group. *p<0.05, **p<0.01, ***p<0.001, ANOVA with Dunnett's test.
(§1) As assessed by immunolabeling, hTauP301S mice treated with S3QEL2 also had reduced levels of glial fibrillary acidic protein (GFAP)-positive astrogliosis and phosphorylated tau (FIG. 7). Western blotting confirmed reduced levels of phosphorylated but not total tau in these mice (FIG. 5).

A-172 glioblastoma cells = test: Glioblastoma cell proliferation, CellTiter-Glo luciferase assay, A-172; type: cell-based, human; conditions: 0-50 μM, 72 and 96 h
Procedure: Relative cell density was measured using the CellTiter-Glo luciferase assay. n=3 wells per condition. *p<0.05, **p<0.01, ***p<0.001 vs. 0 μM, one-way ANOVA with Dunnett's multiple comparisons test.
The effect of S3QELs on proliferation of glial tumor cells that have different oncogenic mutations was assessed. In particular, proliferation rates were assessed in three different human immortalized glioblastoma cells lines (A-172, T98G, and U-87 MG). A-172 and U-87 lines have mutations in PTEN, a phosphatase that indirectly regulates PI3K activities, whereas T98G cell line has a mutation in p53, a well-known tumor suppressor gene. STAT3 can affect PI3K signaling and p53 transcription and could thereby promote glioblastoma cell proliferation. Whether S3QELs reduce glioblastoma cell proliferation and aberrant intracellular signaling was tested.
Briefly, two complementary methods were used to assess cell proliferation, including the CellTiter-Glo assay and DAPI staining of cell nuclei. The effects of S3QEL2 treatment on A-172, T98G, and U-87 MG cells were measured at different drug concentrations (0, 6, 20, 30, 40, or 50 μM) and time-points after treatment (72 or 96 hours). S3QEL2 inhibits proliferation of A-172 and T98G glioblastoma cells in a highly dose-dependent manner and these effects are similar at different time-points (FIG. 15A-B).

astrocytes = test: Oxygen consumption rates (mitochondrial respiration) in astrocytes; type: cell-based
Description: Oxygen consumption rates (OCR) and maximal consumption rates are shown for indicated S3QEL2 concentrations and time points. Antimycin and rotenone were used as positive controls to inhibit mitochondrial respiration. ***p<0.001 vs. vehicle, two-way repeated measures ANOVA with Dunnett's multiple comparisons test.

[1] = Brain levels of compound after i.p. injection or oral consumption (pharmacokinetics); type: in vivo, mice
Procedure: (FIGS. 1A-B) Levels of S3QEL2 (FIG. 1A) and S1QEL1.1 (FIG. 1B) in the brain following a single i.p. injection or oral consumption (per oral, PO), which improved duration of exposure. n=3-6 wild-type mice per group. (FIGS. 1C-D) Body weights of male nontransgenic (NTG) or hTauP301S mice treated with S3QEL2 (FIG. 1C) (S3, 5 mg/kg/day, PO in almond butter), S1QEL1.1 (FIG. 1D) (10 mg/kg/day, PO in almond butter), or vehicle. (FIG. 1E) Levels of S3QEL2 in the mouse brain following almond butter (AB) or chow administration at indicated doses for 21 days. (n=15 mice per dose). n=3-15 wild-type mice per condition. (FIG. 1F) Body weight of 4-5-month-old wild-type male mice treated with formulated chow containing S3QEL2 at indicated doses and durations (n=15 mice per dose).
A series of pharmacokinetic and drug tolerance experiments with S3QEL2 in adult wild-type and transgenic hTauP301S mice was first performed. Different administration routes and drug formulations were tested. […] Chow that was formulated to deliver 0, 5, 15, or 30 mg/kg/day of S3QEL2 was also tested.

tau = test: Western blotting of phospho-tau and total tau in hippocampal tissue of hTauP301S mice; type: in vivo; conditions: 6 weeks oral dosing
Description: Levels of phospho-tau (FIG. 5A) and total tau (FIG. 5B) as measured by Western blotting in hippocampal tissue from male nontransgenic (NTG) and hTauP301S mice after 6 weeks of oral dosing with S3QEL2 or vehicle. n=3-6 mice per group. *p<0.05, **p<0.01, ***p<0.001, ANOVA with Dunnett's test.
as §1

[2] = test system: genes linked to neuroinflammation and glial reactivity; test: Microfluidic RT-qPCR panel of neuroinflammation-related genes in hippocampi of hTauP301S mice; type: in vivo; conditions: 10-month-old hTauP301S mice, six weeks oral dosing, vs vehicle
Procedure: Subset of neuroinflammatory markers measured by RT-qPCR in hippocampi of 10-month-old male nontransgenic (NTG) or hTauP301S mice after 6 weeks of oral dosing with 5 mg/kg/day S3QEL2, 10 mg/kg/day S1QEL1.1, or vehicle. […] Average fold-change vs NTG. n=3-5 mice per group.
Next, studies were conducted to test if S3QEL2 or SIQEL1.1 altered the expression of genes involved in neuroinflammation and glial reactivity in hTauP301S mice.

Nrf2 = test: Hippocampal RNA levels of Nrf2 in hTauP301S mice; type: in vivo; conditions: 5 mg/kg/day, six weeks
[3] = test system: primary neurons with primary mouse microglia; test: Tau-associated neuronal damage in primary neurons cultured with microglia; type: cell-based; conditions: 10 μM; AAV human P301S tau
Procedure: Primary neurons were immunostained for MAP2 or NeuN following mock treatment or transduction with AAV encoding human P301S mutant tau under the synapsin-1 promoter. Neurons were cultured without (FIGS. 9A-9B) or with (FIGS. 9C-9D) primary mouse microglia. S3QEL2 (S3, 10 μM). n=4 per condition.
To begin dissecting the mechanisms by which S3QEL2 affects neural cell function and disease-linked processes, studies in primary cultures were conducted. Isolated mouse-derived neurons were transduced with adeno-associated viral vectors (AAVs) encoding wild-type or the P301S mutant form of the human tau protein (FIG. 8A). […] However, S3QEL reduced neuronal damage in the presence of astrocytes (approx. 30% astrocytes, FIG. 10A). Tau can also promote aberrant neuronal activity and hypersynchrony. S3QEL reduced aberrant neuronal firing in tau-transduced neurons co-cultured with astrocytes (FIGS. 10B-10C).

SMILES: CCCN(CCC)c1ncnc2c1cnn2-c1ccc(C)c(C)c1 [S3QEL2]
- Intracellular ATP levels (primary astrocytes): do not affect intracellular ATP levels
- ASC/Pycard protein immunolabeling (ASC/Pycard; CD11b): reduced
- CD11b protein immunolabeling (ASC/Pycard; CD11b): reduced
- Cell proliferation (relative cell density, CellTiter-Glo) (A-172 glioblastoma cells): dose-dependently inhibited cell proliferation
- Mitochondrial respiration (oxygen consumption rates, OCR) (astrocytes): does not affect mitochondrial respiration
- Crossing of the blood-brain barrier (levels in the brain) ([1]; after peripheral administration, wild-type mice): readily crossed the blood-brain barrier
- Increase in the area under the curve of drug presence in the brain, oral intake as compared to i.p. injection ([1]; brain, oral vs intraperitoneal): 6 fold
- Chronic delivery to the brain by formulated chow ([1]; chow vs almond butter, 21 days, wild-type mice): equally effective in chronically delivering S3QEL2 to the brain
- Phospho-tau levels (Western blotting) (tau): reduced
- Expression of genes linked to neuroinflammation and glial reactivity [2]: reduced expression of diverse genes linked to neuroinflammation and glial reactivity
- Hippocampal Nrf2 RNA levels (Nrf2): reduced
- Tau-associated neuronal damage, neurons cultured with microglia [3]: did not affect tau-associated neuronal damage
